Data: paper PMC13065029 (PLOS One, 2026)
Read-outs that look alike come from different tables or passages of the source.

T1: Chikungunya virus (CHIKV) nsP2 protease (Chikungunya virus)
T1 chain: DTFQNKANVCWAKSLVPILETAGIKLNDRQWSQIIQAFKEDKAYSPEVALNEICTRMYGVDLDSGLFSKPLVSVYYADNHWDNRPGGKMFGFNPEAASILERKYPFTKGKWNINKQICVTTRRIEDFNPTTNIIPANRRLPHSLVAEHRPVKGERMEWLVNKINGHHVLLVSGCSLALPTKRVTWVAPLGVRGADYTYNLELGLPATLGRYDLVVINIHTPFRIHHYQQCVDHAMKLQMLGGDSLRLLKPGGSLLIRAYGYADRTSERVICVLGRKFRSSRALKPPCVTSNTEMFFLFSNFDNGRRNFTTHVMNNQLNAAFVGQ


Columns and labels:
[1] = biological target: T2, CHIKV nsP2^pro (Chikungunya virus, UniProt Q8JUX6); details: fluorometry; ref [18]; cited from earlier work
[2] = biological target: T2, CHIKV nsP2^pro; details: ref [18]; cited from earlier work
[3] = biological target: T2, CHIKV nsP2^pro; details: FRET; ref [18]; read-out: IC₅₀; cited from earlier work
[4] = biological target: T2, CHIKV nsP2^pro; details: MST; ref [67]; cited from earlier work
[5] = system: Human alphaherpesvirus 1 (HSV-1); details: cited from earlier work
[6] = system: Yellow Fever virus; details: cited from earlier work
[7] = system: Dengue virus; details: cited from earlier work
[8] = biological target: T1, Chikungunya virus (CHIKV) nsP2 protease; test: BLI; details: both partners purified

Molecule | Kd [1] [µM] | Inhibition Mode [2] | IC50 [3] [µM] | other results
COc1ccc([C@@H]2CC(=O)c3c(O)cc(O)cc3O2)cc1O [Hesperetin (HST), Hesperetin] | 31.6 ± 2.5 | Noncompetitive | 2.5 ± 0.4 | 
COc1ccc([C@@H]2CC(=O)c3c(O)cc(O[C@@H]4O[C@H](CO[C@@H]5O[C@@H](C)[C@H](O)[C@@H](O)[C@H]5O)[C@@H](O)[C@H](O)[C@H]4O)cc3O2)cc1O [Hesperidin (HSD), Hesperidin] | 40.7 ± 2 | Noncompetitive | 7.1 ± 1.1 | 
CC1=C(CO)C(=O)O[C@@H]([C@@H](C)[C@H]2CC[C@H]3[C@@H]4C[C@H]5O[C@]56[C@@H](O)C=CC(=O)[C@]6(C)[C@H]4CC[C@]23C)C1 [Withaferin A (WFA), Withaferin A] |  |  |  | Kd [4]: 64 µM
Mastoparan |  |  |  | antiviral activity [5]: antiviral activity
Phospholipase A2 |  |  |  | antiviral activity [6]: antiviral activity; antiviral activity [7]: antiviral activity
GILGKLWEGFKSIV (Stock of 10 mM in DMSO) [pantinin-1] |  |  |  | Kd [8]: 9.29 µM
